The values that follow come from ChEMBL document CHEMBL1201862, “PubChem BioAssay data set” (2004).

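Test compounds were applied to cells in 96-well plates for 48 hours at 5 doses. The concentration for 50% growth inhibition is given as GI50.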 The source made the active and inactive calls. Rule as the data show it: active = GI50 up to about 1.1 µM and inactive = higher.

Some test systems named below: ACHN; RPMI-8226; HCT-15; 786-0; K562; IGROV-1; HOP-62; SN12C; TK-10; NCI-H460; KM12; CAKI-1; KM-20L2; A498; SK-MEL-5; HCT-116; OVCAR-5; MDA-N; MDA-MB-435.
What all share (assay): NCI tumour cell line growth inhibition, 48 h

With `Cc1ccc(S(=O)(=O)ON/N=C2/C3OC3[C@@H]3CCCC[C@H]23)cc1` (stereo partly drawn), the GI50 with ACHN is > 100 µM (inactive); in the experiment on RPMI-8226, > 100 µM (inactive); in the experiment on HCT-15, greater than 100 µM; in the experiment on 786-0 it was > 100 µM (inactive); in the experiment with K562, > 100 µM (inactive); in the experiment with IGROV-1, > 100 µM (inactive). The GI50 in the experiment with HOP-62, in the experiment with SN12C, in the experiment on TK-10, in the experiment with NCI-H460, with KM12 and in the experiment on CAKI-1 was > 100 µM (inactive) throughout. Also, the GI50 with KM-20L2 is > 100 µM (inactive).

As to `CCOC(=O)C1C(=O)C(=O)N2CCc3c([nH]c4ccccc34)C12` (stereo not drawn), the GI50 was > 100 µM (inactive) in the experiment on RPMI-8226; greater than 100 µM with HCT-15; > 100 µM (inactive) in the experiment with 786-0; > 100 µM (inactive) in the experiment with K562; > 100 µM (inactive) in the experiment with IGROV-1; > 100 µM (inactive) in the experiment on A498. Besides, the GI50 in the experiment on HOP-62, in the experiment on SN12C, in the experiment on SK-MEL-5, in the experiment on HCT-116, in the experiment on TK-10 and in the experiment on OVCAR-5 was > 100 µM (inactive) in each case. The GI50 in the experiment on KM12, in the experiment with CAKI-1 and in the experiment with KM-20L2 was > 100 µM (inactive) in each case.

As for `Cc1c2cc[n+](C)cc2c(C)c2c1[nH]c1ccc(Oc3ccccc3)cc12`, the GI50 in the experiment with ACHN was 2.05 µM (inactive); in the experiment with RPMI-8226 it was 1.62 µM (inactive); in the experiment with HCT-15 it was 3.05 µM; in the experiment on 786-0, 0.504 µM (active); in the experiment on K562 it was 0.383 µM (active); in the experiment on IGROV-1, 2.23 µM (inactive). The GI50 in the experiment with HOP-62 is 0.578 µM (active); with SN12C it was 0.381 µM (active); in the experiment with SK-MEL-5, 0.794 µM (active); in the experiment on HCT-116 it was 1.54 µM (inactive); with OVCAR-5, 3.31 µM (inactive); with KM12, 0.59 µM (active). For the same molecule, the GI50 with CAKI-1 was 1.89 µM (inactive); in the experiment on KM-20L2, 1.14 µM (inactive).

For the molecule `C=C1C(=O)O[C@H]2[C@H]1[C@H](OC(=O)/C(C)=C\C)C[C@]1(CO1)[C@@H]1[C@H](OC(C)=O)C=C(C)[C@]21O` [EUPAROTIN ACETATE], the GI50 with ACHN is 10.6 µM (inactive); in the experiment with RPMI-8226, 4.82 µM (inactive); with HCT-15 it was 13.3 µM; in the experiment with MDA-N, 13.2 µM (inactive); with 786-0 it was 7.46 µM (inactive); in the experiment on K562, 0.383 µM (active). In addition, the GI50 with IGROV-1 is 19.5 µM (inactive); with A498 it was 1.24 µM (inactive); in the experiment on HOP-62 it was 74 µM (inactive); with SN12C it was 14 µM (inactive); in the experiment with SK-MEL-5, 17 µM (inactive); in the experiment on MDA-MB-435 it was 17.9 µM (inactive). The GI50 was 6.58 µM (inactive) with HCT-116; 7.73 µM (inactive) in the experiment with TK-10; 28 µM (inactive) with NCI-H460; 25.4 µM (inactive) with OVCAR-5; 19 µM (inactive) in the experiment on KM12; 17.3 µM (inactive) in the experiment with CAKI-1.

Turning to `C[C@]12CC[C@H]3[C@@H](CC[C@]4(O)C[C@@H](O)CC[C@]34C=O)[C@@]1(O)CC[C@@H]2C1=CC(=O)OC1` [STROPHANTHIDIN], the GI50 in the experiment with ACHN was 0.142 µM (active); with RPMI-8226, 0.506 µM (active); in the experiment with HCT-15, 0.413 µM; with MDA-N, 0.372 µM (active); in the experiment with 786-0 it was 0.321 µM (active); in the experiment with K562, 0.605 µM (active). The GI50 with IGROV-1 is 0.453 µM (active); in the experiment with A498 it was 0.562 µM (active); in the experiment on HOP-62, 0.159 µM (active); with SN12C it was 0.418 µM (active); in the experiment on SK-MEL-5 it was 0.288 µM (active); with MDA-MB-435, 0.522 µM (active). The GI50 in the experiment on HCT-116 was 0.259 µM (active); in the experiment with TK-10 it was 0.465 µM (active); in the experiment on NCI-H460, 0.195 µM (active); in the experiment with OVCAR-5, 1.42 µM (inactive); in the experiment with KM12, 1.94 µM (inactive); in the experiment with CAKI-1 it was 0.19 µM (active).
